According to ChEMBL document CHEMBL3421530, “Azepinone-Containing Tetrapeptide Analogues of Melanotropin Lead to Selective hMC4R Agonists and hMC5R Antagonist” (ACS Med Chem Lett, 2015):

Experiments:
[1] = molecular target: T1, Melanocyte-stimulating hormone receptor (Homo sapiens, UniProt Q01726); test: Displacement of [125I]-NDP-alpha-MSH from human MC1 receptor expressed in HEK293 cells by gamma counting analysis; assay type: cell-based
Target sequence in this assay (Q01726 whole entry): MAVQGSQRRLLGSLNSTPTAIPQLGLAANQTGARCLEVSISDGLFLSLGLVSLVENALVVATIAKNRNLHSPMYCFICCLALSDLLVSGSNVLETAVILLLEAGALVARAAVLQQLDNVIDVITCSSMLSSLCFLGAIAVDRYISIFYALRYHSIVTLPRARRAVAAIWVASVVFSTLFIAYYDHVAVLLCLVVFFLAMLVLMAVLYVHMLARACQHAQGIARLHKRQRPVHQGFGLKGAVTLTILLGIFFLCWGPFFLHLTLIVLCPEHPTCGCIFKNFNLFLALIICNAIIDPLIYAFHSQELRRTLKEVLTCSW

[2] = molecular target: T1, Melanocyte-stimulating hormone receptor; test: Displacement of [125I]-NDP-alpha-MSH from human MC1 receptor expressed in HEK293 cells at 10 uM by gamma counting analysis; assay type: cell-based
Target sequence in this assay (Q01726 whole entry, looked up): as the sequence (Q01726 whole entry) above

[3] = molecular target: T1, Melanocyte-stimulating hormone receptor; test: Activity at human MC1 receptor expressed in HEK293 cells assessed as cAMP accumulation by luminescence counter; assay type: functional, cell-based
Target sequence in this assay (Q01726 whole entry): as above

[4] = molecular target: T1, Melanocyte-stimulating hormone receptor; test: Activity at human MC1 receptor expressed in HEK293 cells assessed as cAMP accumulation at 10 uM by luminescence counter relative to MT-II; assay type: functional, cell-based
Target sequence in this assay (Q01726 whole entry, looked up): as the sequence (Q01726 whole entry) above

[5] = molecular target: T2, Melanocortin receptor 3 (Homo sapiens, UniProt P41968); test: Displacement of [125I]-NDP-alpha-MSH from human MC3 receptor expressed in HEK293 cells by gamma counting analysis; assay type: cell-based
[6] = molecular target: T2, Melanocortin receptor 3; test: Displacement of [125I]-NDP-alpha-MSH from human MC3 receptor expressed in HEK293 cells at 10 uM by gamma counting analysis; assay type: cell-based
[7] = molecular target: T2, Melanocortin receptor 3; test: Activity at human MC3 receptor expressed in HEK293 cells assessed as cAMP accumulation by luminescence counter; assay type: functional, cell-based
[8] = molecular target: T2, Melanocortin receptor 3; test: Activity at human MC3 receptor expressed in HEK293 cells assessed as cAMP accumulation at 10 uM by luminescence counter relative to MT-II; assay type: functional, cell-based
[9] = molecular target: T3, Melanocortin receptor 4 (Homo sapiens, UniProt P32245); test: Displacement of [125I]-NDP-alpha-MSH from human MC4 receptor expressed in HEK293 cells by gamma counting analysis; assay type: cell-based
[10] = molecular target: T3, Melanocortin receptor 4; test: Displacement of [125I]-NDP-alpha-MSH from human MC4 receptor expressed in HEK293 cells at 10 uM by gamma counting analysis; assay type: cell-based
[11] = molecular target: T3, Melanocortin receptor 4; test: Agonist activity at human MC4 receptor expressed in HEK293 cells assessed as cAMP accumulation by luminescence counter; assay type: functional, cell-based
[12] = molecular target: T3, Melanocortin receptor 4; test: Agonist activity at human MC4 receptor expressed in HEK293 cells assessed as cAMP accumulation at 10 uM by luminescence counter relative to MT-II; assay type: functional, cell-based
[13] = molecular target: T4, Melanocortin receptor 5 (Homo sapiens, UniProt P33032); test: Displacement of [125I]-NDP-alpha-MSH from human MC5 receptor expressed in HEK293 cells by gamma counting analysis; assay type: cell-based
[14] = molecular target: T4, Melanocortin receptor 5; test: Displacement of [125I]-NDP-alpha-MSH from human MC5 receptor expressed in HEK293 cells at 10 uM by gamma counting analysis; assay type: cell-based
[15] = molecular target: T4, Melanocortin receptor 5; test: Antagonist activity at human MC5 receptor expressed in HEK293 cells assessed as cAMP accumulation by luminescence counter; assay type: functional, cell-based
[16] = molecular target: T4, Melanocortin receptor 5; test: Antagonist activity at human MC5 receptor expressed in HEK293 cells assessed as cAMP accumulation at 10 uM by luminescence counter relative to MT-II; assay type: functional, cell-based; set-up: scale not given: the % may be the effect or the level left
[17] = Retention time of the compound; assay type: physicochemical

T2 sequence (P41968 whole entry): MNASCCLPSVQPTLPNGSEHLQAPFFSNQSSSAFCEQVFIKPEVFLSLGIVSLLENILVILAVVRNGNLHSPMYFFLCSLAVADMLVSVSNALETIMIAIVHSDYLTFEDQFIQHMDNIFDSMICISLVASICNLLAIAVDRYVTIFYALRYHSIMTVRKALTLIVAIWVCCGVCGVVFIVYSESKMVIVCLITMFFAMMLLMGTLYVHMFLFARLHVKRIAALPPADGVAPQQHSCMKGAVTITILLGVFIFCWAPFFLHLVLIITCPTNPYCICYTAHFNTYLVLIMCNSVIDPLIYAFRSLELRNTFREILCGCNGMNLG
T3 sequence (P32245 whole entry): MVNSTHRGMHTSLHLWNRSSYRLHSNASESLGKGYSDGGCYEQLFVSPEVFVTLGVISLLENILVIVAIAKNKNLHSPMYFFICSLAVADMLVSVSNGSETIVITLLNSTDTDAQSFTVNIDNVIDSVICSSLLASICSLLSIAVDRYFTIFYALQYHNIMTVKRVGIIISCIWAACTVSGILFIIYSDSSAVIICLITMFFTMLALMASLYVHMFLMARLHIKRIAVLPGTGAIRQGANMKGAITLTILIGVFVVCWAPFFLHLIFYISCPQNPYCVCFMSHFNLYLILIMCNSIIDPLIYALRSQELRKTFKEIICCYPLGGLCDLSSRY
T4 sequence (P33032 whole entry): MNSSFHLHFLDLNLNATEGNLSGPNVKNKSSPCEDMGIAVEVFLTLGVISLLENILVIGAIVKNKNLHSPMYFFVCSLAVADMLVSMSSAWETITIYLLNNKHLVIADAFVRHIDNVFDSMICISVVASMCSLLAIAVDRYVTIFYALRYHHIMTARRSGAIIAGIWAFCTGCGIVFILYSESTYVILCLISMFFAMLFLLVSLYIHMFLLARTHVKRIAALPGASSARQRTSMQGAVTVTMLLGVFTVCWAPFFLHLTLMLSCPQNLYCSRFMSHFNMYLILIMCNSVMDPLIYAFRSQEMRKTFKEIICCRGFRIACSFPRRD

| SMILES | IC50 [1] [nM] | %max [2] [%] | EC50 ([3]; read-out: EC50) [nM] | Activity [4] [%] | IC50 ([5]; read-out: IC50) [nM] | %max [6] [%] | EC50 ([7]; read-out: EC50) [nM] | Activity [8] [%] | IC50 [9] [nM] | %max [10] [%] | EC50 [11] [nM] | Activity [12] [%] | IC50 [13] [nM] | %max [14] [%] | EC50 ([15]; hek293) | Activity [16] [%] | Retention_time [17] [min] | other results |
| --- | --- | --- | --- | --- | --- | --- | --- | --- | --- | --- | --- | --- | --- | --- | --- | --- | --- | --- |
| CC(=O)N[C@H]1Cc2ccccc2CN([C@H](Cc2ccccc2)C(=O)N[C@@H](CCCNC(=N)N)C(=O)N[C@@H](Cc2c[nH]c3ccccc23)C(N)=O)C1=O | 594 | 80 | 1000 | 70 | > 2000 | 59 | 59 | 40 | 220 | 80 | 227 | 80 | 37.3 | 75 | Not Active | 0 | 13.35 |  |
| CC(=O)N[C@H]1Cc2c([nH]c3ccccc23)CN([C@H](Cc2ccc(Br)cc2)C(=O)N[C@@H](CCCNC(=N)N)C(=O)N[C@@H](Cc2c[nH]c3ccccc23)C(N)=O)C1=O | 300 | 80 | 700 | 100 | 100 | 100 | 2440 | 50 | 200 | 100 | 0.3 | 80 | 70.3 | 100 | Not Active | 0 | 14.85 |  |
| CC(=O)N[C@H]1Cn2nncc2CN([C@H](Cc2ccccc2)C(=O)N[C@@H](CCCNC(=N)N)C(=O)N[C@@H](Cc2c[nH]c3ccccc23)C(N)=O)C1=O | 4540 | 60 | 750 | 100 | 1000 | 55 | 55 | 20 | 200 | 80 | 203 | 80 | 137 | 70 | Not Active | 0 | 10.43 |  |

Second part, led by results:

| IC50 [1] [nM] | %max [2] [%] | EC50 ([3]; read-out: EC50) [nM] | Activity [4] [%] | IC50 ([5]; read-out: IC50) [nM] | %max [6] [%] | EC50 ([7]; read-out: EC50) [nM] | Activity [8] [%] | IC50 [9] [nM] | %max [10] [%] | EC50 [11] [nM] | Activity [12] [%] | IC50 [13] [nM] | %max [14] [%] | EC50 ([15]; hek293) | Activity [16] [%] | Retention_time [17] [min] | SMILES | other results |
| --- | --- | --- | --- | --- | --- | --- | --- | --- | --- | --- | --- | --- | --- | --- | --- | --- | --- | --- |
| 1350 | 50 |  | 0 |  |  | 52 | 20 | 447 | 50 | 0.3 | 51 | 636 | 80 | Not Active | 0 | 13.05 | CC(=O)N[C@H]1Cc2c([nH]c3ccccc23)CN([C@H](Cc2ccccc2)C(=O)N[C@@H](CCCNC(=N)N)C(=O)N[C@@H](Cc2c[nH]c3ccccc23)C(N)=O)C1=O | EC50 ([3]; hek293): Not Active; IC50 ([5]; hek293): Not Active |
| 258 | 40 | 226 | 50 | 5000 | 50 |  | 0 | 6.5 | 80 | 13 | 100 | 167 | 80 |  | 50 | 13.94 | CC(=O)N[C@H]1Cc2c([nH]c3ccccc23)CN([C@H](Cc2ccc(F)cc2)C(=O)N[C@@H](CCCNC(=N)N)C(=O)N[C@@H](Cc2c[nH]c3ccccc23)C(N)=O)C1=O | EC50 ([7]; hek293): Not Active; EC50 ([15]; read-out: EC50): 4110 nM |
